Marks after values point to notes of the source that are not given here.
What was measured:
[1] = type: in vitro ADME; conditions: human
Procedure: Protein binding was also evaluated in an in vitro study in human, mouse, rat, and dog plasma using equilibrium dialysis (12-14K molecular weight cut-off membrane). […] This study also measured the binding of (^14C)-cilansetron to purified human serum albumin at cilansetron concentrations ranging from 30-3000 ng/mL and to purified human alpha-1 acid glycoprotein (AAG) at concentrations ranging from 30-10000 ng/mL.

healthy subjects = experiment: Study K.241.5009: esophageal visceral perception; type: in vivo, human; conditions: mean (SD); for Pressure first producing esophageal pain / Pressure first producing esophageal sensation / Volume first producing esophageal pain / Volume first producing esophageal sensation: absolute value; for Pressure first producing esophageal pain, Differences from Placebo / Pressure first producing esophageal sensation, Differences from Placebo / Volume first producing esophageal pain, Differences from Placebo / Volume first producing esophageal sensation, Differences from Placebo: not significant
Procedure: The effect of cilansetron on esophageal visceral perception was evaluated in a randomized, double-blind, placebo-controlled, 3-way crossover study in 12 male healthy subjects (ITT population), aged 32-62 years. Subjects received placebo, cilansetron 4 mg, or cilansetron 8 mg administered orally TID for 7 days during each of the 3 periods, with a 7-day washout between periods. Esophageal distension tests were done one hour after administration of the second dose on Day 7 of each treatment. A manually inflated intraesophageal balloon was used to produce distensions (successive 1 mL increases, up to a sensation of […] pain or a maximum balloon volume of 20 mL). The primary efficacy parameter was the distension volume inducing esophageal pain. Secondary parameters were the distension volumes and pressures leading to first esophageal sensation. The pain threshold and other secondary parameters for each of the cilansetron doses was compared to placebo using a one-sided Dunnett t-test.

[2] = system: non-constipated IBS subjects; experiment: Study S241.2.112: Phase II dose-ranging efficacy; type: in vivo, human
Procedure: Study S241.2.112 was a Phase II, double-blind, placebo-controlled, randomized, multicenter parallel-group, dose-ranging study to investigate the efficacy and safety of cilansetron in non-constipated subjects with irritable bowel syndrome. The study was conducted in 51 study centers in the U.S. A total of at least 88 subjects were planned per treatment group evaluable for efficacy, in total 440 to complete the study; 975 subjects were screened; 490 were randomized and 481 analyzed for safety.
Diagnosis and main criteria for inclusion were IBS subjects satisfying the Rome criteria (1992) and minimum abdominal pain/discomfort, stool frequency and consistency determined during the run-in period. Subjects were treated with cilansetron 1 mg, 2 mg, 8 mg, and 16 mg tablets given orally TID or matching placebo tablets given orally TID for 12 weeks.
Efficacy was evaluated by weekly global questions concerning adequate relief of IBS symptoms (abdominal pain/discomfort, abnormal bowel habits). A responder is a subject who responded “Yes” at least 50% of the time after randomization, with a minimum treatment duration of four weeks.

[3] = system: diarrhea-predominant IBS subjects; experiment: Study S241.3.011: safety; type: in vivo, human
From the text: The primary efficacy parameter was the number of months that a subject was a responder for IBS symptoms (abdominal pain, abdominal discomfort, abnormal bowel habits) over the 12-week treatment period. A responder for a month (monthly responder) was defined as a subject who answered the weekly question with “yes” at least twice for that month. The two main secondary efficacy parameters were the monthly responder rates based on the “adequate relief” questions regarding abdominal pain/discomfort and abnormal bowel habits during the 12-week treatment period. The overall response rate and responder rate for the weekly diary questions on adequate relief at each month and all months, the adequate relief rate, the number of subjects with adequate relief by week, daily diary questions, IBS-QOL scores, and the interruption of activities were also assessed. Safety was evaluated by physical examination, ECG, vital signs, laboratory evaluations, concomitant medications, and AEs.

[4] = both, human, in vivo
Procedure: The effect of renal impairment on the pharmacokinetics of cilansetron was evaluated in a study excluding subjects with end-stage renal disease, and utilizing a single-center, open-label, multiple-dose, parallel group study in 13 male and 9 female subjects, aged 33-74 years. […] Healthy subjects were matched to renally-impaired subjects with respect to age, weight, gender, and smoking status. All subjects received oral cilansetron 2 mg TID on Days 1 to 5, and a single dose on the morning of Day 6. Blood samples for measurement of plasma pharmacokinetics of cilansetron and its 4-hydroxy metabolites were collected up to 24 hours following dosing on Day 6, and log-transformed pharmacokinetic parameters for these analytes were statistically compared between study groups. Serum concentrations of unbound cilansetron and its 4-hydroxy metabolites were also measured prior to dosing and at 1 and 1.5 hours postdose on Day 6.

CYP1A2 = CYP1A2 (Homo sapiens, UniProt P05177); experiment: biochemical
CYP1A2, sequence (P05177 whole entry): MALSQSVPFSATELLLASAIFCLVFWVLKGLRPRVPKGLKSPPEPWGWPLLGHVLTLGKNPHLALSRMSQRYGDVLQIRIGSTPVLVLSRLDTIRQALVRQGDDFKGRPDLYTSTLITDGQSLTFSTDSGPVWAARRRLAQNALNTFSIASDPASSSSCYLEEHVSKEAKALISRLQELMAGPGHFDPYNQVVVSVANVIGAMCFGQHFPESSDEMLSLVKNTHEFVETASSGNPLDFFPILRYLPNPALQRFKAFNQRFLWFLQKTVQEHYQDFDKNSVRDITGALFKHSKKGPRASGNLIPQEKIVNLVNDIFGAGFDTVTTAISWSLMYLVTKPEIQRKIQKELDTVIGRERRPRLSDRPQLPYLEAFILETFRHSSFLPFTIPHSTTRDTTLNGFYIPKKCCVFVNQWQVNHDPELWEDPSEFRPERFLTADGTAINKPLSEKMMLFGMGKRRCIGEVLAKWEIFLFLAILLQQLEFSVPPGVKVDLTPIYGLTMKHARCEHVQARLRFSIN

Cc1nccn1C[C@H]1CCc2c(c3cccc4c3n2CCC4)C1=O [Cilansetron, (R)-(−)-4,5,6,8,9,10-hexahydro-10-[(2-methyl-1H-imidazol-1-yl)methyl]-11H-pyrido-[3,2,1-jk]-carbazol-11-one]
Protein bound [1]: 93-96% | Pressure first producing esophageal pain (healthy subjects; 4 mg TID oral 7 days): 42.3 (11.3) mmHg | Pressure first producing esophageal sensation (healthy subjects; 4 mg TID oral 7 days): 27.4 (9.6) mmHg | Volume first producing esophageal pain (healthy subjects; 4 mg TID oral 7 days): 14.6 (4.3) mL | Volume first producing esophageal sensation (healthy subjects; 4 mg TID oral 7 days): 5.3 (3.5) mL | Pressure first producing esophageal pain, Differences from Placebo (healthy subjects; 4 mg TID oral 7 days): 3.0 (24.0) mmHg | Pressure first producing esophageal sensation, Differences from Placebo (healthy subjects; 4 mg TID oral 7 days): −2.5 (16.4) mmHg | Volume first producing esophageal pain, Differences from Placebo (healthy subjects; 4 mg TID oral 7 days): 1.4 (4.9) mL | Volume first producing esophageal sensation, Differences from Placebo (healthy subjects; 4 mg TID oral 7 days): −0.3 (4.8) mL | Pressure first producing esophageal pain (healthy subjects; 8 mg TID oral 7 days): 41.0 (12.5) mmHg | Pressure first producing esophageal sensation (healthy subjects; 8 mg TID oral 7 days): 28.4 (10.9) mmHg | Volume first producing esophageal pain (healthy subjects; 8 mg TID oral 7 days): 13.9 (5.8) mL | Volume first producing esophageal sensation (healthy subjects; 8 mg TID oral 7 days): 5.2 (3.6) mL | Pressure first producing esophageal pain, Differences from Placebo (healthy subjects; 8 mg TID oral 7 days): 1.3 (22.5) mmHg | Pressure first producing esophageal sensation, Differences from Placebo (healthy subjects; 8 mg TID oral 7 days): −2.5 (6.9) mmHg | Volume first producing esophageal pain, Differences from Placebo (healthy subjects; 8 mg TID oral 7 days): 0.8 (3.6) mL | Volume first producing esophageal sensation, Differences from Placebo (healthy subjects; 8 mg TID oral 7 days): −0.5 (1.8) mL | Responder rate better than placebo ([2]; 1 mg TID): 22% | Responder rate better than placebo ([2]; 1 mg, females): 26% | Responder rate higher than placebo ([2]; 2 mg TID): 13% | Responder rate higher than placebo ([2]; 8 mg TID): 15% | Responder rate better than placebo ([2]; 16 mg TID): 22% | Number of subjects who died during the three-month treatment period ([3]; 2 mg TID, 388 randomized, S241.3.011): 1 (<1) n (%) | Constipation ([3]; female, human, in vivo, 3 months): 26% | Fecal occult blood positive and/or blood in stool ([3]; human, in vivo): 7% | Abdominal distension ([3]; human, in vivo, 3 months): 5% | Abdominal pain NOS ([3]; human, in vivo, 3 months): 6% | Abdominal pain upper ([3]; human, in vivo, 3 months): 2% | Constipation ([3]; human, in vivo, 3 months): 20% | Flatulence ([3]; human, in vivo, 3 months): 4% | Serious AEs ([3]; human, in vivo, 3 months): 2% | Subjects with at least one TEAE ([3]; human, in vivo, 3 months): 69% | At least one TEAE, entire four-month period ([3]; human, in vivo, 4 months): 78% | TEAEs leading to permanent discontinuation ([3]; in vivo): Eleven | Constipation ([3]; male, human, in vivo, 3 months): 8% | AUC(0-τ) ratio Mild/Healthy [4]: 71 (38, 132) % | AUC(0-τ) ratio Moderate/Healthy [4]: 49 (25, 95) % | AUC(0-τ) ratio Renal Combined/Healthy [4]: 76 (47, 124) % | AUC(0-τ) ratio Severe/Healthy [4]: 130 (66, 254) % | CL/F ratio Mild/Healthy [4]: 141 (76, 264) % | CL/F ratio Moderate/Healthy [4]: 206 (105, 403) % | CL/F ratio Renal Combined/Healthy [4]: 131 (81, 213) % | CL/F ratio Severe/Healthy [4]: 77 (39, 151) % | Cmax ratio Mild/Healthy [4]: 83 (50, 140) % | Cmax ratio Moderate/Healthy [4]: 55 (32, 96) % | Cmax ratio Renal Combined/Healthy [4]: 90 (60, 134) % | Cmax ratio Severe/Healthy [4]: 156 (89, 272) % | T½ ratio Mild/Healthy [4]: 85 (63, 114) % | T½ ratio Moderate/Healthy [4]: 65 (47, 89)* % | T½ ratio Renal Combined/Healthy [4]: 78 (62, 99) % | T½ ratio Severe/Healthy [4]: 87 (64, 120) % | Tmax ([4]; 2 mg): 1.13 h | IC50 (CYP1A2): 60 µM

— patent publication US20090176817A1, “Method of Treatment of Diarrhea-Predominant Irritable Bowel Syndrome in a Subject” (priority 2005, published 2009)
